As a reminder, the IC50 is the concentration at which inhibition is half-maximal.

Data on six compounds can be found in patent EP0995757A2, “Bivalent inhibitors of the proteasome” (Max-Planck-Gesellschaft zur Förderung der Wissenschaften …, priority 1998, dated 2000).

Where a SMILES comes first, the peptide text is derived from it.

Assay [1] concerns the target T1, yeast 20S proteasome (Saccharomyces cerevisiae, UniProt P25043+P30656+P38624).
T1 construct: Three of the seven different β-type subunits are processed at the N-terminal nucleophile, the threonine-1 residue; from tissue; host or cells: Saccharomyces cerevisiae (natural 20S complex)
The assay is described as follows: X-ray structure analysis of proteasome/inhibitor complexes (crystal soaking). The following applies: crystals soaked with 5 mM inhibitor for 12h, no competing substrate. Also noted: species or system S. cerivisiae. The protocol:
Crystals of […] proteasomes from S. cerivisiae were grown in hanging drops at 24 °C as described previously (Groll et al., Nature 386, 463-471, 1997). The protein concentration used for crystallization was 40 mg/ml in 10 mM Tris-HCl (pH 7.5) and 1 mM EDTA. The drops contained 4 µl protein and 2 µl reservoir solution with 30 mM magnesium acetate, 100 mM morpholino-ethane-sulphonic acid (pH 6.5) and 11 % MPD. The inhibitors were soaked with a final concentration of 5 mM for 12h. Data were collected using synchrotron radiation with λ = 1.1 Å on the BW6-beamline at the DESY-Centre/Hamburg/Germany (Table 1). Crystals were soaked in a cryoprotecting buffer (30% MPD, 28 mM magnesium acetate, 100 mM morpholino-ethane-sulfonic acid (pH 6.9) and frozen in a stream of cold nitrogen gas at 90 K (Oxford Cryo Systems). X-ray intensities were evaluated by using the MOSFILM program package (version 5.3) and data reduction was performed with CCP4. The anisotropy of diffraction was corrected by an overall anisotropic temperature factor by comparing observed and calculated structure amplitudes using X-PLOR (Brunger, A. (1992) X-PLOR: A System for X-Ray Crystallography and NMR, version 3.1; Yale University Press, New Haven, CT). Electron density was averaged 10 times over the 2-fold non crystallographic symmetry axis using MAIN (Turk, D., Ph. D. Thesis, Technical University, Munich, 1992). […]

Assay [2] addresses T2, yeast proteasome β1/β1' (Saccharomyces cerevisiae, UniProt P38624). The assay is described as follows: Proteasome assay, PGPH activity (fluorogenic substrate Z-Leu-Leu-Glu-βNA). In kind it is biochemical, Saccharomyces cerivisiae. Also noted: Three of the seven different β-type subunits are processed at the N-terminal nucleophile, the threonine-1 residue; from tissue; host or cells: Saccharomyces cerevisiae (natural complex from yeast; I conclude this from 'proteasome from'). The following applies: Z-Leu-Leu-Glu-βNA 40 µM, inhibitor incubated 1 h at 37°C, Tris-buffer pH 7.5. The protocol: (§1) A solution of proteasome from Saccharomyces cerivisiae in Tris-buffer (pH 7.5; 450 µl; 6.67 nM for PGPH, 5.56 nM for trypsin-like and 1.11 nM for chymotrypsin-like activity) was incubated with the inhibitors at varying concentrations ([…]) for 1 h at 37°C. The fluorogenic substrates for PGPH (Z-Leu-Leu-Glu-βNA, 40 µM), trypsin-like (Bz-Phe-Val-Arg-AMC, 8 µM) and chymotrypsin-like assays (Suc-Leu-Leu-Val-Tyr-AMC, 8 µM) were dissolved in the same Tris-buffer with a minimum amount of DMSO and added to the enzyme solution at 37 °C to reach a final volume of 500 µl. Fluorescence excitation/emission wavelengths were 360 nm/460 nm for AMC and 335 nm/410 nm for βNA. The rates of hydrolysis were monitored by the fluorescence increase and the initial linear portions of curves (100-300 sec) were used to calculate the IC50 values.

Assay [3] deals with T3, yeast proteasome β2/β2' (Saccharomyces cerevisiae, UniProt P25043). Description: Proteasome assay, trypsin-like activity (fluorogenic substrate Bz-Phe-Val-Arg-AMC). The format is biochemical, Saccharomyces cerivisiae. Details: from tissue; host or cells: Saccharomyces cerevisiae (natural complex from yeast; I conclude this from 'proteasome from'). As to conditions: for increase in binding affinity: compared to the monovalent inhibitors 1, 2, 3 and 5, β2/β2'; for IC50: trypsin-like activity, Bz-Phe-Val-Arg-AMC 8 µM, inhibitor incubated 1 h at 37°C, Tris-buffer pH 7.5. The protocol:
as §1

In assay [4] the target is T4, yeast proteasome β5/β5' (Saccharomyces cerevisiae, UniProt P30656). Description: Proteasome assay, chymotrypsin-like activity (fluorogenic substrate Suc-Leu-Leu-Val-Tyr-AMC). In kind it is biochemical, Saccharomyces cerivisiae. Details: from tissue; host or cells: Saccharomyces cerevisiae (natural complex from yeast; I conclude this from 'proteasome from'). As to conditions: for IC50: chymotrypsin-like activity, Suc-Leu-Leu-Val-Tyr-AMC 8 µM, inhibitor incubated 1 h at 37°C, Tris-buffer pH 7.5; for increase in binding affinity: compared to the monovalent inhibitors 1, 2, 3 and 5, β5/β5'. The protocol: as §1

Assay [5] has as its target T3, yeast proteasome β2/β2'. Description: Proteasome assay, trypsin-like activity (fluorogenic substrate Bz-Phe-Val-Arg-AMC). In kind it is biochemical. Details: endogenous in cells; host or cells: Saccharomyces cerevisiae. The following applies: Bz-Phe-Val-Arg-AMC 8 µM, inhibitor incubated 1 h at 37°C, Tris-buffer pH 7.5. The protocol: as §1
Assay [6] deals with T4, yeast proteasome β5/β5'. Description: Proteasome assay, chymotrypsin-like activity (fluorogenic substrate Suc-Leu-Leu-Val-Tyr-AMC). The format is biochemical. Also noted: endogenous in cells; host or cells: Saccharomyces cerevisiae. As to conditions: Suc-Leu-Leu-Val-Tyr-AMC 8 µM, inhibitor incubated 1 h at 37°C, Tris-buffer pH 7.5. The method, then:
as §1

For assay [7], the target named is T2, yeast proteasome β1/β1'. Description: Proteasome assay, PGPH activity (fluorogenic substrate Z-Leu-Leu-Glu-βNA). In kind it is biochemical. Details: Three of the seven different β-type subunits are processed at the N-terminal nucleophile, the threonine-1 residue; endogenous in cells; host or cells: Saccharomyces cerevisiae. The following applies: Z-Leu-Leu-Glu-βNA 40 µM, inhibitor incubated 1 h at 37°C, Tris-buffer pH 7.5. The method, then: as §1

Take “(PEG)19-25-[NH-CO-(CH2)2-CO-Arg- Val-Arg-H]2 [compound 6]”: in assay [1], the “active sites occupied by the inhibitory head group in the X-ray structure” value was “only in the two β2 and β2' active sites”. In addition, the IC50 in assay [2] is more than 100 µM; in assay [3], 0.071 µM; in assay [4] it was more than 100000 nM. Moreover, the “increase in binding affinity” value in assay [3] was “about two orders of magnitude”. The increased activity in assay [3] (homobivalent versus related monovalent inhibitors, tryptic activity β2/β2') was found to be 100 fold.

On to “(PEG)19-25-[NH- CO- (CH2)2- CO-Leu-Leu-Nle-H]2 [compound 4]”, for which the “active sites occupied by the inhibitory head group in the X-ray structure” value in assay [1] was “occupies all six active sites”. Also, the figures for the half-maximal inhibitory concentration (IC50) in assay [2], in assay [3] and in assay [4] were more than 100 µM, more than 100 µM and 17 nM, respectively. Moreover, the “increase in binding affinity” value in assay [4] was “about two orders of magnitude”. The compound also gave an increased activity in assay [4] (homobivalent versus related monovalent inhibitors, chymotryptic activity β5/β5') of 100 fold.

Consider “HOOC-(CH2)2-CO-NH-(PEG)19-25-NH-CO-(CH2)2-CO-Arg-Val-Arg-H [compound 5]”, for which the IC50 in assay [2] was more than 100 µM; in assay [3], 8.2 µM; in assay [4], more than 100000 nM.

With `CC(=O)N[C@@H](CCCNC(=N)N)C(=O)N[C@H](C(=O)N[C@H](C=O)CCCNC(=N)N)C(C)C` [compound 2, Ac-Arg-Val-Arg-H] (Ac-Arg-Val-Arg-aldehyde), the IC50 in assay [5] is 6.4 µM; in assay [6], more than 100 µM; in assay [7], more than 100 µM.

Take “(PEG)19-25-[NH-CO-(CH2)2-CO-Arg-Val-Arg-H][NH-CO-(CH2)2-CO-Leu-Leu-Nle-H] [compound 7]”: the concentration for half-maximal inhibition (IC50) in assay [2] was more than 100 µM; in assay [3] it was 0.097 µM; in assay [4], 31 nM. Besides, the “increase in binding affinity” value in assay [3] and in assay [4] was “about two orders of magnitude” throughout.

With “HOOC-(CH2)2-CO-NH-(PEG)19-25-NH-(CH2)2-CO-Leu-Leu-Nle-H [compound 3]”, the IC50 in assay [2] was more than 100 µM; in assay [3], more than 100 µM; in assay [4] it was 1800 nM.
